Measured values published in patent publication US20130252930A1 (BIOMARIN PHARMACEUTICAL INC., priority 2010, published 2013).
Read-outs that look alike come from different tables or passages of the source.

Experiments:
[1] = test system: rat Cyp11B enzyme (rat adrenal mitochondria); experiment: CYP11B enzymatic assay (% inhibition at 100 nM) (Biological Example 9); format: biochemical; conditions: for CYP11B enzymatic assay % inhibition at 100 nM (Biological Example No. 9) / Biological Example No. 9: CYP11B enzymatic assay % inhibition at 100 nM: compound at 100 nM
Procedure: Adrenals excised from Sprague Dawley rats were homogenized, and mitochondria fraction were prepared by a series of centrifugation as described in Shuji Ohno, et al. J. of Steroid Biochemistry & Molecular Biology 2002, 80, 355-363. Prepared mitochondria protein was washed and resuspended in Buffer B (0.21 M mannitol, 70 mM sucrose, 5 mM MgCl2, 0.5 mM CaCl2, 20 mM Tris-HCl (pH 7.4) and 1 mM DTT, […]). The protein concentration was determined by BCA assay and stored as 10 μL aliquots at −80° C.
The rat Cyp11B enzyme assay was performed in 96-well plates. Typical assays were carried out in total 50 μL volume that included test compounds at 100 nM concentration, 1× Buffer B, 0.5 mM NADPH, 0.1 μM 11-deoxycortisol, and 2 μL of prepared rat adrenal mitochondria (added last). Reaction without test compound served as positive control and reaction without NADPH served as negative control. Reactions were allowed to incubate at 37° C. for 60 min with gentle shaking. The reaction was stopped by directly applying the enzymatic reaction mixture (1:5 diluted in ELISA assay buffer) to ELISA plate for evaluation of cortisol concentration according to manufacturer's protocol (Assay Design).
The mean absorbance value for each sample was used to determine the corresponding concentration from the standard curve. Amount of cortisol in the negative control (reaction that dis not include NADPH) was subtracted from total cortisol. Percent inhibition (inhibition %) of the compound was calculated using normalized cortisol concentration based on following formula: 100−([Cortisol] of compound/[Cortisol] of positive control *100).

[2] = molecular target: T1, CYP17 (human testicular microsome) (Homo sapiens, UniProt P05093); experiment: CYP17 enzymatic assay (% inhibition at 10 nM), version 1 (Biological Example 5); format: biochemical; conditions: 10 nM compound, DHEA by ELISA, read-out: Biological Example No. 5: CYP17 percent inhibition at 10 nM (version 1)
T1 construct: using microsomal fraction from human testis (Celsis Cat #S00110) as the enzyme source; tissue Celsis S00110; host or cells: human testis microsomal fraction
T1 sequence (P05093 1-508): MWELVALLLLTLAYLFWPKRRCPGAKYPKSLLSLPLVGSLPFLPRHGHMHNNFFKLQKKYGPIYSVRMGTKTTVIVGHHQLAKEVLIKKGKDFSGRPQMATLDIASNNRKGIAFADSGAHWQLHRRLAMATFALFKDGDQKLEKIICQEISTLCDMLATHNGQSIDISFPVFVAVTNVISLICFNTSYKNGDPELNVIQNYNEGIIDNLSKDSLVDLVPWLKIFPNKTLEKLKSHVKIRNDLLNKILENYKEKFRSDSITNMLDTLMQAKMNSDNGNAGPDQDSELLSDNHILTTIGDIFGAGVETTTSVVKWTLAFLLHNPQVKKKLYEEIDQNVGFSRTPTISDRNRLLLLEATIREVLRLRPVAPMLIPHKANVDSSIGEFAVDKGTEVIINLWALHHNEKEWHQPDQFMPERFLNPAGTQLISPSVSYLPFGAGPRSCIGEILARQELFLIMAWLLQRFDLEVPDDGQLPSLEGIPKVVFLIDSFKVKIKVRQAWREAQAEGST

[3] = molecular target: T1, CYP17 (human testicular microsome); experiment: CYP17 enzymatic assay (% inhibition at 1 nM) (Biological Example 12); format: biochemical
[4] = molecular target: T1, CYP17 (human testicular microsome); experiment: CYP17 enzymatic assay (IC50) (Biological Example 4); format: biochemical; conditions: human testicular microsome
[5] = molecular target: T2, Cyp21 enzyme (Human HEK 293-Cyp21 stable transfected cells) (Homo sapiens, UniProt P08686); experiment: CYP21-HEK293 enzymatic assay (IC50) (Biological Example 11); format: cell-based; conditions: HEK 293-Cyp21 cells, DOC by ELISA; read-out: Biological Example No. 11: CYP21-HEK293 IC50
T2 construct: expressed in transfected cells
T2 sequence (P08686 1-495): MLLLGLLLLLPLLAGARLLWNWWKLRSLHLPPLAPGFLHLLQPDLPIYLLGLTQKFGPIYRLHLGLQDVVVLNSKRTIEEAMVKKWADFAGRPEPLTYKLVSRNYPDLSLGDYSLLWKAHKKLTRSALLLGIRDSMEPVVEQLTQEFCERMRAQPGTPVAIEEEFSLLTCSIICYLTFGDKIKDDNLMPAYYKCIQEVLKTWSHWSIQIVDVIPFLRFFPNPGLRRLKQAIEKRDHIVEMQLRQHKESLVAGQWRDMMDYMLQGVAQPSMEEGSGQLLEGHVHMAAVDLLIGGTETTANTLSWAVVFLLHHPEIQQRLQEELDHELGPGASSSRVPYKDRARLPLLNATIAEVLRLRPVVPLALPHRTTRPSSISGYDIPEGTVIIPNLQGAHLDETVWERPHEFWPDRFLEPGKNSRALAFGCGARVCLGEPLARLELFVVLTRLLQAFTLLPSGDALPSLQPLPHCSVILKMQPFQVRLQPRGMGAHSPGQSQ

CYP17 (H295R cells) = molecular target: T3, CYP17 (H295R cells) (Homo sapiens, UniProt P05093); experiment: CYP17 cellular assay (IC50), testosterone in H295R cells (Biological Example 7); format: cell-based; conditions: H295R cells, testosterone by ELISA, 24 hours; read-out: Biological Example No. 7: CYP17 cellular assay IC50
T3 construct: endogenous in cells; host or cells: H295R cells
T3 sequence (P05093 1-508): T1 sequence (P05093 1-508)
How it was run: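 H295R cells cultured 24 h, then exposed to compound at 100, 10, 1, 0.1 nM final in serum-free DMEM/F-12 with ITS+ and 0.1% methanol for 24 h at 37 °C. Medium testosterone measured by ELISA and plotted against compound concentration.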

[6] = Human liver microsome stability assay (Biological Example 8b); conditions: liver microsomes, pH 7.4
[7] = compound at 1 nM, read-out: CYP17 enzymatic assay % inhibition at 1 nM (Biological Example No. 12)
[8] = compound at 1 nM, read-out: Biological Example No. 12: CYP17 enzymatic assay % inhibition at 1 nM

| inhibition at 0.001 µM [3, 7] | SMILES | CYP11B enzymatic assay % inhibition at 100 nM (Biological Example No. 9) [1] | inhibition at 0.001 µM [3, 8] | Biological Example No. 9: CYP11B enzymatic assay % inhibition at 100 nM [1] | also measured |
| --- | --- | --- | --- | --- | --- |
|  | CC(=O)O[C@H]1CC[C@@]2(C)C(=CC[C@H]3C4=CC=C(c5cccnc5)[C@@]4(C)CC[C@@H]32)C1 [Compound 78, (3S,10R,13S)-10,13-dimethyl-17-(pyridin-3-yl)-2,3,4,7,8,9,10,11,12,13-decahydro-1H-cyclopenta[a]phenanthren-3-yl acetate] |  |  |  | Biological Example No. 9: CYP11B percent inhibition at 100 nM ([1]; 100 nM compound, cortisol by ELISA): U (U means the compound had a percent inhibition of greater than or equal to 32%); inhibition at 0.01 µM [2]: 1 to 50% |
| > 50% | CN1C(=O)C[C@@]2(C)C1=CCC1C2CC[C@]2(C)C(c3cccnc3)=CCC12 (stereo partly drawn) [Compound 185, (3aR,5aS)-1,3a,5a-trimethyl-6-(pyridin-3-yl)-3,3a,3b,4,5,5a,8,8a,8b,9-decahydroindeno[5,4-e]indol-2(1H)-one] | U (U means the compound had a percent inhibition of greater than or equal to 32%) |  |  | IC50 ([4]; read-out: CYP17 enzymatic assay IC50 (Biological Example No. 4)): < 11 nM |
| 10 to 50% | CN1C(=O)C[C@@]2(C)C1=CCC1C2CC[C@]2(C)C(n3ccnc3)=CCC12 (stereo partly drawn) [Compound 186, (3aR,5aS)-6-(1H-imidazol-1-yl)-1,3a,5a-trimethyl-3,3a,3b,4,5,5a,8,8a,8b,9-decahydroindeno[5,4-e]indol-2(1H)-one] | U (U means the compound had a percent inhibition of greater than or equal to 32%) |  |  |  |
| 10 to 50% | Cc1cncc(C2=CCC3C4CC=C5N(C)C(=O)C[C@]5(C)C4CC[C@]23C)c1 (stereo partly drawn) [Compound 188, (3aR,5aS)-1,3a,5a-trimethyl-6-(5-methylpyridin-3-yl)-3,3a,3b,4,5,5a,8,8a,8b,9-decahydroindeno[5,4-e]indol-2(1H)-one] | T (T means the compound had a percent inhibition of less than 32% when tested at 100 nM) |  |  |  |
| 10 to 50% | CCOc1cncc(C2=CCC3C4CC=C5N(C)C(=O)C[C@]5(C)C4CC[C@]23C)c1 (stereo partly drawn) [Compound 189, (3aR,5aS)-6-(5-ethoxypyridin-3-yl)-1,3a,5a-trimethyl-3,3a,3b,4,5,5a,8,8a,8b,9-decahydroindeno[5,4-e]indol-2(1H)-one] | U (U means the compound had a percent inhibition of greater than or equal to 32%) |  |  |  |
|  | C[C@]12CC[C@H](O)CC1=CC[C@@H]1[C@@H]2CC[C@]2(C)C(n3cncc3C#N)=CC[C@@H]12 [Compound 426, 1-((3S,10R,13S)-3-hydroxy-10,13-dimethyl-2,3,4,7,8,9,10,11,12,13,14,15-dodecahydro-1H-cyclopenta[a]phenanthren-17-yl)-1H-imidazole-5-carbonitrile] |  | 10 to 50% | U (U means the compound had a percent inhibition of greater than or equal to 32%) |  |
|  | CN1C(=O)CC[C@@]2(C)C1=CCC1C2CC[C@]2(C)C(c3cncc(F)c3)=CCC12 (stereo partly drawn) [Compound 428, (4aR,6aS)-7-(5-fluoropyridin-3-yl)-1,4a,6a-trimethyl-4,4a,4b,5,6,6a,9,9a,9b,10-decahydro-1H-indeno[5,4-f]quinolin-2(3H)-one] |  | 10 to 50% | U (U means the compound had a percent inhibition of greater than or equal to 32%) |  |
|  | CN1C(=O)CC[C@@]2(C)C1=CC[C@@H]1[C@@H]2CC[C@]2(C)C(n3cncc3C#N)=CC[C@@H]12 [Compound 433, 1-((4aR,6aS)-1,4a,6a-trimethyl-2-oxo-2,3,4,4a,4b,5,6,6a,9,9a,9b,10-dodecahydro-1H-indeno[5,4-f]quinolin-7-yl)-1H-imidazole-5-carbonitrile] |  | < 10% | T (T means the compound had a percent inhibition of less than 32% when tested at 100 nM) |  |
|  | C[C@]12CCCN(S(C)(=O)=O)CC1CC[C@@H]1[C@@H]2CC[C@]2(C)C(n3ccnc3)=CC[C@@H]12 (stereo partly drawn) [Compound 437, (5aR,7aS)-8-(1H-imidazol-1-yl)-5a,7a-dimethyl-2-(methylsulfonyl)-1,2,3,4,5,5a,5b,6,7,7a,10,10a,10b,11,12,12a-hexadecahydrocyclopenta[5,6]naphtho[2,1-c]azepine] |  |  | U (U means the compound had a percent inhibition of greater than or equal to 32%) | IC50 ([4]; read-out: Biological Example No. 4: CYP17 enzymatic assay IC50): > 25 nM |
| 10 to 50% | CC(=O)N1CCC[C@@]2(C)[C@@H](CC[C@@H]3[C@@H]2CC[C@]2(C)C(n4ccnc4)=CC[C@@H]32)C1 [Compound 443, 1-((5aR,5bS,7aS,10aS,10bR,12aR)-8-(1H-imidazol-1-yl)-5a,7a-dimethyl-3,4,5,5a,5b,6,7,7a,10,10a,10b,11,12,12a-tetradecahydrocyclopenta[5,6]naphtho[2,1-c]azepin-2(1H)-yl)ethanone] | U (U means the compound had a percent inhibition of greater than or equal to 32%) |  |  |  |
|  | COC(=O)c1cncn1C1=CCC2C3CC=C4C[C@@H](O)CC[C@]4(C)C3CC[C@]12C (stereo partly drawn) [Compound 476, methyl 1-((3S,10R,13S)-3-hydroxy-10,13-dimethyl-2,3,4,7,8,9,10,11,12,13,14,15-dodecahydro-1H-cyclopenta[a]phenanthren-17-yl)-1H-imidazole-5-carboxylate] |  | 10 to 50% | na (“na” means the compound was not active under the conditions tested) |  |
|  | C[C@]12CCC(=O)C=C1C(F)CC1C2CC[C@]2(C)C(c3cccnc3)=CCC12 (stereo partly drawn) [D, (10R,13S)-6-fluoro-10,13-dimethyl-17-(pyridin-3-yl)-6,7,8,9,10,11,12,13,14,15-decahydro-1H-cyclopenta[a]phenanthren-3(2H)-one, reference compound] |  |  |  | IC50 [5]: > 1000 nM; inhibition at 0.001 µM ([3]; 1 nM compound, DHEA by ELISA, read-out: Biological Example No. 12: CYP17 percent inhibition at 1 nM): > 50%; IC50 (CYP17 (H295R cells)): < 15 nM; half-life at 1 μM [6]: 1 to 50 min; IC50 ([4]; DHEA by ELISA, read-out: Biological Example No. 4: CYP17 enzymatic assay IC50): < 11 nM |
